Test results from the supplement of paper PMC10307832.

Tests used:
Assay in all cases: relative viability (nuclei count vs DMSO), 5 days (fraction); higher = more cells survive
[1] = compound: CC(C)(C)c1nc(-c2cccc(NS(=O)(=O)c3c(F)cccc3F)c2F)c(-c2ccnc(N)n2)s1 [Dabrafenib] + Cc1cc(Nc2cc(N3CCN(C)CC3)nc(Sc3ccc(NC(=O)C4CC4)cc3)n2)n[nH]1 [Tozasertib] (partner 0.1 µM)
How it was run: (§1)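 Cells from lung cancer lines were seeded into 1536-well plates and, one day later, dosed by pin tool. Treatments were either a single drug or a fixed dose of an anchor drug with five library-drug doses (not always all listed) in √10 steps. After 5 days, nuclei were stained in a one-step fixation (final 0.05% Triton X-100, 1% formaldehyde, 1 ug/ml Hoechst) and counted on 4× images, and relative viability is the treated-to-vehicle nuclei ratio, as the median of duplicate plates.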

[2] = compound: NC(=O)c1ccc(N(C(N)=O)c2c(F)cccc2F)nc1-c1ccc(F)cc1F [VX-702] + CC1(C)CCC(c2ccc(Cl)cc2)=C(CN2CCN(c3ccc(C(=O)NS(=O)(=O)c4ccc(N[C@H](CCN5CCOCC5)CSc5ccccc5)c(S(=O)(=O)C(F)(F)F)c4)cc3)CC2)C1 [Navitoclax] (partner 0.5 µM)
How it was run: as §1

[3] = compound: NC(=O)c1ccc(N(C(N)=O)c2c(F)cccc2F)nc1-c1ccc(F)cc1F [VX-702] + CC(=O)c1c(C)c2cnc(Nc3ccc(N4CCNCC4)cn3)nc2n(C2CCCC2)c1=O [Palbociclib] (partner 0.5 µM)
How it was run: as §1

[4] = compound: NC(=O)c1ccc(N(C(N)=O)c2c(F)cccc2F)nc1-c1ccc(F)cc1F [VX-702] + C[C@]1(O)C[C@@H](c2nc(-c3ccc4ccc(-c5ccccc5)nc4c3)c3c(N)nccn32)C1 [Linsitinib] (partner 1 µM)
How it was run: as §1

For NCI-H322M, the relative viability ([1]; first compound 0.009487 µM) was 0.49, the relative viability ([1]; first compound 0.03 µM) was 0.373 and the relative viability ([1]; first compound 0.09487 µM) was 0.446. The relative viability ([1]; first compound 0.3 µM) was 0.436, the relative viability ([2]; first compound 0.02 µM) was 1.2 and the relative viability ([2]; first compound 0.2 µM) was 1.02. For the same cell line, the relative viability ([2]; first compound 0.6325 µM) was 1.19, the relative viability ([2]; first compound 2 µM) was 1.28 and the relative viability ([3]; first compound 0.02 µM) was 0.458. For the same cell line, the relative viability ([3]; first compound 0.2 µM) was 0.48, the relative viability ([3]; first compound 0.6325 µM) was 0.489 and the relative viability ([3]; first compound 2 µM) was 0.449. For the same cell line, the relative viability ([4]; first compound 0.02 µM) was 0.999, the relative viability ([4]; first compound 0.2 µM) was 0.905 and the relative viability ([4]; first compound 0.6325 µM) was 0.918. For the same cell line, the relative viability ([4]; first compound 2 µM) was 0.883.
HCC-366 gave a relative viability ([1]; first compound 0.003 µM) of 0.088, a relative viability ([1]; first compound 0.009487 µM) of 0.187 and a relative viability ([1]; first compound 0.03 µM) of 0.0643. The relative viability ([1]; first compound 0.09487 µM) was 0.104, the relative viability ([1]; first compound 0.3 µM) was 0.0995 and the relative viability ([2]; first compound 0.02 µM) was 0.971. It also gave a relative viability ([2]; first compound 0.2 µM) of 0.988, a relative viability ([2]; first compound 0.6325 µM) of 1.1 and a relative viability ([2]; first compound 2 µM) of 0.918. The relative viability ([3]; first compound 0.02 µM) was 0.409, the relative viability ([3]; first compound 0.2 µM) was 0.412 and the relative viability ([3]; first compound 0.6325 µM) was 0.389. It also gave a relative viability ([3]; first compound 2 µM) of 0.333, a relative viability ([4]; first compound 0.02 µM) of 0.592 and a relative viability ([4]; first compound 0.2 µM) of 0.375. It also gave a relative viability ([4]; first compound 0.6325 µM) of 0.615 and a relative viability ([4]; first compound 2 µM) of 0.47.
With NCI-H1355 the relative viability ([1]; first compound 0.009487 µM) was 0.677, the relative viability ([1]; first compound 0.03 µM) was 0.519 and the relative viability ([1]; first compound 0.09487 µM) was 0.439. It also gave a relative viability ([1]; first compound 0.3 µM) of 0.577, a relative viability ([2]; first compound 0.02 µM) of 0.988 and a relative viability ([2]; first compound 0.2 µM) of 0.819. The relative viability ([2]; first compound 0.6325 µM) was 0.902, the relative viability ([2]; first compound 2 µM) was 1.01 and the relative viability ([3]; first compound 0.02 µM) was 0.411. It also gave a relative viability ([3]; first compound 0.2 µM) of 0.424, a relative viability ([3]; first compound 0.6325 µM) of 0.441 and a relative viability ([3]; first compound 2 µM) of 0.404. For the same cell line, the relative viability ([4]; first compound 0.02 µM) was 0.76, the relative viability ([4]; first compound 0.2 µM) was 0.802 and the relative viability ([4]; first compound 0.6325 µM) was 0.749. It also gave a relative viability ([4]; first compound 2 µM) of 0.866.
LC-2-ad was tested, and the relative viability ([1]; first compound 0.009487 µM) was 0.453, the relative viability ([1]; first compound 0.03 µM) was 0.422 and the relative viability ([1]; first compound 0.09487 µM) was 0.447. For the same cell line, the relative viability ([1]; first compound 0.3 µM) was 0.429, the relative viability ([2]; first compound 0.02 µM) was 0.467 and the relative viability ([2]; first compound 0.2 µM) was 0.565. For the same cell line, the relative viability ([2]; first compound 0.6325 µM) was 0.475, the relative viability ([2]; first compound 2 µM) was 0.561 and the relative viability ([3]; first compound 0.02 µM) was 0.496. For the same cell line, the relative viability ([3]; first compound 0.2 µM) was 0.451, the relative viability ([3]; first compound 0.6325 µM) was 0.525 and the relative viability ([3]; first compound 2 µM) was 0.478. For the same cell line, the relative viability ([4]; first compound 0.02 µM) was 0.778, the relative viability ([4]; first compound 0.2 µM) was 0.799 and the relative viability ([4]; first compound 0.6325 µM) was 0.922. For the same cell line, the relative viability ([4]; first compound 2 µM) was 0.885.
Work on NCI-H2087 yielded a relative viability ([1]; first compound 0.009487 µM) of 0.306, a relative viability ([1]; first compound 0.03 µM) of 0.254 and a relative viability ([1]; first compound 0.09487 µM) of 0.302. The relative viability ([1]; first compound 0.3 µM) was 0.264, the relative viability ([2]; first compound 0.02 µM) was 0.975 and the relative viability ([2]; first compound 0.2 µM) was 0.838. For the same cell line, the relative viability ([2]; first compound 0.6325 µM) was 0.92, the relative viability ([2]; first compound 2 µM) was 1.05 and the relative viability ([3]; first compound 0.02 µM) was 0.203. For the same cell line, the relative viability ([3]; first compound 0.2 µM) was 0.228, the relative viability ([3]; first compound 0.6325 µM) was 0.214 and the relative viability ([3]; first compound 2 µM) was 0.225. It also gave a relative viability ([4]; first compound 0.02 µM) of 1.07, a relative viability ([4]; first compound 0.2 µM) of 0.982 and a relative viability ([4]; first compound 0.6325 µM) of 0.879. It also gave a relative viability ([4]; first compound 2 µM) of 1.01.
